Assay results as given in patent EP1561465A2, “Methods of use of fluoroquinolone compounds against bacteria” (LG Life Sciences, Ltd., priority 1999, dated 2001).
≈ marks a conversion by molar mass, not a printed value. Read-outs that look alike come from different tables or passages of the source.

Columns and labels:
Streptococcus pneumoniae = test: MIC by broth microdilution (NCCLS), dried MicroScan panels, clinical isolates 1998-1999; assay type: cell-based; settings: for MIC90: Streptococcus pneumoniae
Klebsiella pneumoniae [1] = test: MIC by NCCLS reference broth microdilution, 450 respiratory tract pathogens; assay type: cell-based; settings: for MIC50 / MIC90: Klebsiella pneumoniae
Enterobacter aerogenes = test: MIC by NCCLS broth microdilution, 1100 Japanese clinical isolates 1997-1998; assay type: cell-based; settings: Enterobacter aerogenes (n=35)
Shigella spp. [2] = test: MIC by agar dilution (NCCLS M7-A4), 288 enteropathogenic isolates, gemifloxacin and 15 other antimicrobials; assay type: cell-based; settings: Shigella spp. N= 21
Method in brief: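 Agar dilution with ~10^4 cfu/spot inoculum; plates incubated aerobically at 35 °C for 24 h, except C. jejuni, held microaerophilically for 48 h. MIC taken as lowest antibiotic concentration with no visible growth.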

Streptococcus pyogenes = test: MIC by agar dilution (NCCLS), 411 isolates Buenos Aires 1998-99; assay type: cell-based; settings: Streptococcus pyogenes (n = 69)
Haemophilus influenzae [3] = test: MIC by NCCLS reference broth microdilution, 450 respiratory tract pathogens; assay type: cell-based; settings: Haemophilus influenzae; for MIC90: read-out: MIC90
Shigella spp. [4] = test: MIC by NCCLS broth microdilution, 1100 Japanese clinical isolates 1997-1998; assay type: cell-based; settings: Shigella spp. (n=34)
Haemophilus influenzae [5] = test: MIC by agar dilution (NCCLS), 411 isolates Buenos Aires 1998-99; assay type: cell-based; settings: Haemophilus influenzae (n = 65)
Klebsiella oxytoca = test: MIC by NCCLS broth microdilution, 1100 Japanese clinical isolates 1997-1998; assay type: cell-based; settings: Klebsiella oxytoca (n=40)
Klebsiella pneumoniae [6] = test: as above; assay type: cell-based
Staphylococcus aureus = test: MIC by agar dilution (NCCLS), 411 isolates Buenos Aires 1998-99; assay type: cell-based; settings: for MIC90: Staphylococcus aureus
P. aeruginosa = test: MIC by two-fold serial agar dilution, quinolone-resistant strains; assay type: cell-based; settings: Pseudomonas aeruginosa
Salmonella spp. = test: MIC by NCCLS broth microdilution, 1100 Japanese clinical isolates 1997-1998; assay type: cell-based; settings: Salmonella spp. (n=29)
E. coli = test: microbe, parasite or virus in culture; assay type: cell-based; settings: Escherichia coli
Serratia marcescens = test: MIC by NCCLS broth microdilution, 1100 Japanese clinical isolates 1997-1998; assay type: cell-based
Campylobacter jejuni = test: MIC by agar dilution (NCCLS M7-A4), 288 enteropathogenic isolates, gemifloxacin and 15 other antimicrobials; settings: for MIC: Campylobacter jejuni
[7] = Streptococcus pneumoniae (302 isolates)
[8] = extended spectrum β-lactamase negative (n = 30)
[9] = extended spectrum β-lactamase positive (n = 20)
[10] = Haemophilus influenzae (n = 100)
[11] = S. aureus, Methicillin resistant (n = 14)
[12] = S. aureus, Methicillin susceptible (n = 66)

## C[C@H]1COc2c(N3CCN(C)CC3)c(F)cc3c(=O)c(C(=O)O)cn1c23 [Levofloxacin, levofloxacin]
Streptococcus pneumoniae; [7]
  MIC50: 1 µg/mL (≈ 2.77 µM)
  MIC Range: ≤0.015 to 2 µg/mL
  MIC90: 1 µg/mL (≈ 2.77 µM)
Streptococcus pneumoniae; Erythromycin-resistant (86)
  MIC90: 1 µg/mL (≈ 2.77 µM)
Streptococcus pneumoniae; Erythromycin-sensitive (216)
  MIC90: 2 µg/mL (≈ 5.53 µM)
Streptococcus pneumoniae; Penicillin-intermediate (124)
  MIC90: 1 µg/mL (≈ 2.77 µM)
Streptococcus pneumoniae; Penicillin-resistant (80)
  MIC90: 1 µg/mL (≈ 2.77 µM)
Streptococcus pneumoniae; Penicillin-sensitive (98)
  MIC90: 1 µg/mL (≈ 2.77 µM)
Klebsiella pneumoniae [1]; Klebsiella pneumoniae (n = 50)
  MIC Range: 0.15 to 1 µg/mL
  MIC50: 0.06 µg/mL (≈ 0.166 µM)
  MIC90: 0.5 µg/mL (≈ 1.38 µM)
Klebsiella pneumoniae [1]; [8]
  MIC50: 0.06 µg/mL (≈ 0.166 µM)
  MIC90: 0.12 µg/mL (≈ 0.332 µM)
  MIC Range: 0.015 to 0.5 µg/mL
Klebsiella pneumoniae [1]; [9]
  MIC50: 0.5 µg/mL (≈ 1.38 µM)
  MIC90: 0.5 µg/mL (≈ 1.38 µM)
  MIC Range: 0.06 to 1 µg/mL
Enterobacter aerogenes
  MIC Range: 0.016 to 0.25 µg/mL
Enterobacter aerogenes; Klebsiella aerogenes
  MIC50: 0.032 µg/mL (≈ 0.0886 µM)
  MIC90: 0.063 µg/mL (≈ 0.174 µM)
Shigella spp. [2]; 24 h, read-out: MIC (mg/L) Range
  MIC: 0.015 to 0.03 mg/L (≈ 0.0415 to 0.083 µM)
Shigella spp. [2]; read-out: MIC (mg/L) 50%
  MIC: 0.03 mg/L (≈ 0.083 µM)
Shigella spp. [2]; read-out: MIC (mg/L) 90%
  MIC: 0.03 mg/L (≈ 0.083 µM)
Streptococcus pyogenes
  MIC Range: 0.25 to 2 µg/mL
Haemophilus influenzae [3]; [10]
  MIC: 0.0075 to 0.5 µg/mL (≈ 0.0208 to 1.38 µM)
  MIC50: 0.015 µg/mL (≈ 0.0415 µM)
  MIC90: 0.03 µg/mL (≈ 0.083 µM)
Haemophilus influenzae [3]; β-lactamase negative (n = 80)
  MIC: 0.0075 to 0.5 µg/mL (≈ 0.0208 to 1.38 µM)
  MIC50: 0.015 µg/mL (≈ 0.0415 µM)
  MIC90: 0.015 µg/mL (≈ 0.0415 µM)
Haemophilus influenzae [3]; β-lactamase positive (n = 20)
  MIC: 0.0075 to 0.03 µg/mL (≈ 0.0208 to 0.083 µM)
  MIC50: 0.015 µg/mL (≈ 0.0415 µM)
  MIC90: 0.03 µg/mL (≈ 0.083 µM)
Shigella spp. [4]
  MIC50: 0.016 µg/mL (≈ 0.0443 µM)
  MIC90: 0.063 µg/mL (≈ 0.174 µM)
  MIC Range: 0.016 to 0.063 µg/mL
Haemophilus influenzae [5]
  MIC90: 0.016 µg/mL (≈ 0.0443 µM)
  MIC Range: ≤0.004 to 0.25 µg/mL
Klebsiella oxytoca
  MIC50: 0.063 µg/mL (≈ 0.174 µM)
  MIC90: 4 µg/mL (≈ 11.1 µM)
  MIC Range: 0.016 to 16 µg/mL
Klebsiella pneumoniae [6]; Klebsiella pneumoniae
  MIC90: 0.125 µg/mL (≈ 0.346 µM)
Klebsiella pneumoniae [6]; Klebsiella pneumoniae (n=35)
  MIC50: 0.032 µg/mL (≈ 0.0886 µM)
  MIC Range: 0.016 to 4 µg/mL
Staphylococcus aureus; [11]
  Resistance (%): 100%
  MIC90: 8 µg/mL (≈ 22.1 µM)
Staphylococcus aureus; [12]
  Resistance (%): 0%
  MIC90: 0.25 µg/mL (≈ 0.692 µM)
Staphylococcus aureus; Staphylococcus aureus (n = 80)
  MIC Range: 0.06 to 8 µg/mL
  MIC90: 4 µg/mL (≈ 11.1 µM)
P. aeruginosa
  MIC: 2 µg/mL (≈ 5.53 µM)
Salmonella spp.
  MIC50: 0.063 µg/mL (≈ 0.174 µM)
  MIC90: 0.063 µg/mL (≈ 0.174 µM)
  MIC Range: 0.032 to 0.063 µg/mL
E. coli; E. coli (13 strains), quinolone-resistant, read-out: MIC50
  MIC50: 0.125 µg/mL (≈ 0.346 µM)
E. coli; E. coli (13 strains), quinolone-resistant, read-out: MIC90
  MIC90: 1 µg/mL (≈ 2.77 µM)
E. coli; E. coli KU1029, mutant type SP (spontaneous mutant in the DNA gyrase)
  MIC: 0.063 µg/mL (≈ 0.174 µM)
E. coli; E. coli KU1030, mutant type SP
  MIC: 0.125 µg/mL (≈ 0.346 µM)
E. coli; E. coli KU1031, mutant type SP
  MIC: 0.063 µg/mL (≈ 0.174 µM)
E. coli; E. coli KU1032, mutant type SP
  MIC: 0.25 µg/mL (≈ 0.692 µM)
E. coli; E. coli KU1033, mutant type SP
  MIC: 0.063 µg/mL (≈ 0.174 µM)
E. coli; E. coli KU1034, mutant type GA (DNA gyrase A)
  MIC: 1 µg/mL (≈ 2.77 µM)
E. coli; E. coli KU1035, mutant type GA (DNA gyrase A)
  MIC: 1 µg/mL (≈ 2.77 µM)
E. coli; E. coli KU1036, mutant type GB (DNA gyrase B)
  MIC: 0.125 µg/mL (≈ 0.346 µM)
E. coli; E. coli KU1038, mutant type SP
  MIC: 0.125 µg/mL (≈ 0.346 µM)
E. coli; E. coli KU1039, mutant type SP
  MIC: 0.25 µg/mL (≈ 0.692 µM)
E. coli; E. coli KU1040, mutant type SP
  MIC: 0.031 µg/mL (≈ 0.0858 µM)
E. coli; E. coli KU1041, mutant type SP
  MIC: 0.5 µg/mL (≈ 1.38 µM)
E. coli; E. coli KU1042, mutant type SP
  MIC: 0.063 µg/mL (≈ 0.174 µM)
Serratia marcescens; Serratia marcescens
  MIC50: 0.125 µg/mL (≈ 0.346 µM)
Serratia marcescens; Serratia marcescens (n=30)
  MIC90: 0.5 µg/mL (≈ 1.38 µM)
  MIC Range: 0.063 to 32 µg/mL
Campylobacter jejuni; Campylobacter jejuni N= 91
  MIC (mg/L) Range: 0.06 to 128 mg/L
Campylobacter jejuni; read-out: MIC (mg/L) 50%
  MIC: 8 mg/L (≈ 22.1 µM)
Campylobacter jejuni; read-out: MIC (mg/L) 90%
  MIC: 32 mg/L (≈ 88.6 µM)
